We go through three compounds from PMC8862607 (Molecular microbiology, 2021).

Where two headings read alike, the source gives them in different places.

Assay [1] deals with AntR binding to the ant operator/promoter DNA. It is filed as biochemical, Comamonas testosterone JL40.
Assay [2] has as its system AntR C103S. Description: Two-plasmid gfp biosensor with AntR C103S mutant in E. coli AW3110. The class given is cell-based, Comamonas testosterone JL40. The settings on record: 0.2% arabinose, E. coli AW3110(DE3), Figure 3c.
Assay [3] concerns AntR C113S. Description: Two-plasmid gfp biosensor with AntR C113S mutant in E. coli AW3110. The settings on record: 0.2% arabinose, E. coli AW3110(DE3), Figure 3d. The class given is cell-based, Comamonas testosterone JL40.
Assay [4] addresses T1, AntR (Comamonas testosteroni, UniProt A0A096F4H2). It is filed as binding, Comamonas testosterone JL40. The conditions noted are these: read-out: apparent Kd (ITC).
In assay [5] the target is T1, AntR. It is filed as cell-based, Comamonas testosterone JL40.
The target of assay [6] is AntR Y96W derivative (Comamonas testosteroni, UniProt A0A096F4H2, Y97W). The class given is binding, Comamonas testosterone JL40. The conditions noted are these: read-out: apparent Kd (fluorescence quenching); pH 7.8.
Chain of AntR Y96W derivative (A0A096F4H2 1-124 Y97W): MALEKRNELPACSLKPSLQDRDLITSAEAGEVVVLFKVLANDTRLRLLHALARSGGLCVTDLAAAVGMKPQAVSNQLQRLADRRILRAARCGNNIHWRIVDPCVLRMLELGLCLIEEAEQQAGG

T1 sequence (A0A096F4H2 1-124): as the sequence (A0A096F4H2 1-124 Y97W) above, with W97Y counted along it

For antimonite [Sb(III)], in assay [1], the “effect of metal(loid) on AntR mobility shift of ant promoter probe (EMSA)” value is listed as “mobility shift decreased”. Also, in assay [2], the “response of C103S mutant biosensor compared with the wild type” value is given as “reduced responses”. Moreover, the “response of C113S mutant biosensor compared with the wild type” value in assay [3] is listed as “reduced responses”. Further, the Kd in assay [4] is 57 µM. Further, the “response of AntR repressor to metalloid (introductory summary)” value (“response of AntR repressor to metalloid” below) in assay [5] is reported as “responds”. The “induction of gfp expression in biosensor” value in assay [5] (5 µM metalloid, 0.2% arabinose, E. coli AW3110Δars, wild-type AntR) is “induced gfp expression”.

For `C[As](O)O` [MAs(III), methylarsenite], the “response of C103S mutant biosensor compared with the wild type” value in assay [2] is given as “reduced responses”. The “response of C113S mutant biosensor compared with the wild type” value in assay [3] is “reduced responses”. In addition, in assay [5], the “induction of gfp expression in biosensor” value was “induced gfp expression” and the “response of AntR repressor to metalloid” value is reported as “responds”.

Consider `O[As](O)O` [As(III), arsenite], for which the Kd is about 160 µM in assay [6] and 440 µM in assay [4]. Further, the “induction of gfp expression in biosensor” value in assay [5] is “little gfp expression”. In assay [5], the “response of AntR repressor to metalloid” value is given as “only weakly”.
